Experimental data: patent US7910111B2, “Inhibitors of N-ethylmaleimide sensitive factor” (The Johns Hopkins University, priority 2003, dated 2011)

Columns and labels:
[1] = molecular target: T1, NSF disassembly of the SNARE complex (Cricetulus griseus, UniProt P18708); type: biochemical; conditions: ATP
T1 construct: made in house; host or cells: bacteria (NSF, alpha-SNAP); BL21 cells (GST-SNAREs)
Description: Accordingly, recombinant NSF was pre-treated with the NO donor DEA-NONOate 1 mM for 10 min. Pre-treated NSF, α-SNAP, and detergent extracts of HAEC membranes were then mixed in the presence of 0.5 mM ATP or ATP-γS. These reactions were then fractionated by sucrose density gradient ultracentrifugation, fractions were collected from the bottom of the tube, and immunoblotted with antibody to syntaxin-4.
The effect of NO upon NSF disassembly of purified, recombinant SNARE molecules was next examined. Recombinant (His)6-NSF was pre-treated or not with 1 mM DEA-NONOate for 10 min, and then mixed with and (His)6-a-SNAP and recombinant SNARE fusion polypeptides identified in endothelial cells: GST-syntaxin-4, VAMP-3, and SNAP-23. ATP or ATP-γS was added, the mixture was precipitated with glutathione-sepharose beads, and precipitated proteins were fractionated by SDS-PAGE and immunoblotted with antibody to the NSF tag.
The disassembly activity of NSF was measured by a co-precipitation assay (Pevsner et al., 1994). […] This mixture of NSF and SNARE polypeptides was then incubated in binding buffer (4 mM HEPES pH 7.4, 0.1M NaCl, 1 mM EDTA, 3.5 mM CaCl2, 3.5 mM MgCl2, and 0.5% Nonidet P-40) and glutathione-sepharose beads for 1 h at 4° C. with rotation. The beads were washed with binding buffer 4 times, mixed with SDS-PAGE sample buffer, boiled for 3 min, and analyzed by immunoblotting.
The effect of the TAT-NSF peptide inhibitors upon the ability of NSF to separate from SNARE complexes was measured. Recombinant NSF was pre-treated with 1 μM TAT-NSF peptides, and recombinant GST-SNARE polypeptides were then added, including syntaxin-4, SNAP-23, and VAMP-3. […]
The effect of TAT-NSF peptides on NSF disassembly activity was determined. […]
TAT-NSF81 (SEQ ID NO: 6) inhibition of NSF disassembly activity was also investigated. […] ATP was added, GST-SNAREs were precipitated with glutathione-sepharose, and the precipitant was analyzed for the co-precipitation of NSF.
The disassembly activity of NSF was measured by a co-precipitation assay (Pevsner et al., 1994). […]

recombinant NSF [2] = molecular target: T2, recombinant NSF (Cricetulus griseus, UniProt P18708); assay: S-nitrosylation of recombinant NSF (Saville reaction); type: biochemical; conditions: 1 mM DEA-NONOate
T2 construct: RGS-(His)6 (N); made in house; host or cells: bacteria
Description: The number of cysteine residues that are nitrosylated by exogenous NO was next measured. Recombinant NSF was exposed to increasing amounts of DEA-NONOate, and then the Saville reaction was used to measure the number of nitrosocysteine residues per molecule of NSF. NO nitrosylates NSF in a dose-dependent manner (FIG. 4C). At 1 mM DEA-NONOate, approximately 3 cysteine residues are modified by NO per each molecule of NSF.
Measurement of cysteine residues nitrosylated in vitro was performed by the Saville and Griess assays (Saura et al., 1999). Measurement of NSF nitrosylated in cultured cells was performed by immunoprecipitation with antibody to nitrosocysteine, followed by immunoblotting with antibody to NSF. Measurement of cysteine residues nitrosylated in vivo was performed as previously (Jaffrey et al., 2001; Jaffrey and Snyder, 2001).

[3] = system: human aortic endothelial cells (HAEC); conditions: HAEC pre-treated with increasing amounts; DEA-NONOate 10 min, DETA-NONOate 16 h, SNAP 6 h, NEM 1 h, L-NAME 16 h
Description: To explore the effect of NO upon granule exocytosis, thrombin induced exocytosis of Weibel-Palade bodies from human aortic endothelial cells (HAEC) which release von Willebrand's Factor (vWF) was studied. HAEC was pre-treated with an NO donor 2-(N,N-diethylamino)-diazenolate-2-oxide (DEA-NONOate) 10 mM or with DEA as a control, stimulated the cells with thrombin 1 U/ml for 1 h, and the amount of vWF released into the media was then measured. […] HAEC was then pre-treated with increasing amounts of various NO donors, including a rapidly releasing NO donor DEA-NONOate for 10 min, a slowly releasing NO donor DETA-NONOate for 16 h, or a nitrosothiol S-nitroso-penicillamine (SNAP) for 6 h; alternatively, cells were treated with NEM for 1 h.
The role of endogenous NO in the regulation of Weibel-Palade body exocytosis was then explored. HAEC was pre-treated with L-NAME for 16 h in order to inhibit endogenous NOS, and then the cells were stimulated with 1 U/ml thrombin for 1 h and vWF release was measured. […] HAEC was next pre-treated with vascular endothelial growth factor (VEGF) in order to activate endogenous NOS3. Cells were incubated with 50 ng/ml VEGF or control for 2 h, and then stimulated with thrombin.
A peptide inhibitor of NSF that crosses cell membranes was designed. This peptide, designated TAT-NSF222, includes the protein transduction domain of HIV TAT (residues 47-57) previously shown to transduce polypeptides into cells (Becker-Hapak et al., 2001), fused to a fragment of NSF (residues 222-243) previously shown to inhibit NSF (Schweizer et al., 1998). […] HAEC were then incubated for 20 min with TAT-NSF222, or with a control peptide TAT-NSF222scr that consisted of the intact TAT domain followed by the amino acid residues of NSF 222-243 in a scrambled order. HAEC were transduced with TAT-NSF peptides, treated with media or thrombin, and the amount of vWF released into the media was measured by ELISA.
Since NSF plays a general role in vesicle trafficking, permanent inactivation of NSF would slow vesicular trafficking in general. However, local production of NO at the plasma membrane and reversible nitrosylation of NSF could provide spatial regulation of NSF.
Human aortic endothelial cells (HAEC) and EGM-2 media were obtained from Clonetics (Walkersville, Md.). HAEC were pre-treated with NO donors, washed, stimulated with 1 U/mil of thrombin, and the amount of vWF released into the media was measured by an ELISA (American Diagnostica, Greenwich, Conn.). HAEC were permeabilized by incubation with 10 U/well of SLO (Sigma) in PBS pH 7.4 for 15 min at 37° C. (Walev et al., 2001). Some cells were incubated with 20-200 μg/ml of antibodies or with 100 μg/ml of recombinant NSF. Cells were then resealed by incubation with EGM-2 media for 4 h at 37° C., washed with EGM-2 media, and stimulated with thrombin as above.
The ability of TAT-NSF to affect exocytosis from cells was investigated. Endothelial cells release vWF by exocytosis when stimulated by thrombin. Accordingly, endothelial cells were incubated with increasing amounts of TAT-NSF peptides for 20 min, then treated with 1 U/ml thrombin, and the amount of vWF released into the media was measured by ELISA.
Human aortic endothelial cells (HAEC) and EGM-2 media were obtained from Clonetics (Walkersville, Md.). HAEC were pre-treated with TAT-NSF peptides for 20 min, washed, stimulated with 1 U/ml of thrombin, and the amount of vWF released into the media was measured by an ELISA (American Diagnostica, Greenwich, Conn.).

recombinant NSF [4] = molecular target: T2, recombinant NSF; assay: NSF ATPase assay (coupled colorimetric assay); type: biochemical; conditions: recombinant NSF
Description: The effect of NO upon NSF activity was next explored, since NO inhibits Weibel-Palade body exocytosis, and since NSF regulates Weibel-Palade body exocytosis. The effect of NO upon the ATPase activity of NSF was first examined. DEA-NONOate was added to recombinant NSF, and the ATPase activity of NSF was measured.
(§1) The ATPase activity of NSF was measured by a coupled assay, in which ATP utilization is linked to the pyruvate kinase reaction, which generates pyruvate, which in turn is measured continuously with lactate dehydrogenase (Huang and Hackney, 1994). Recombinant NSF (0.2 μg/μl) was pre-treated with buffer or DEA or DEA-NONOate or NEM for 10 min at 22° C. ATPase reaction buffer (100 mM HEPES buffer, pH 7.0, 100 mM KCl, 10 mM MgCl2, 5 mM CaCl2, 10 mM ATP, 5 mM phosphoenol pyruvate, 50 U lactate dehydrogenase, and 50 U pyruvate kinase) was added to the mixture, followed by 10 μl of NADH (2 mg/ml in 1% sodium bicarbonate). The mixture was incubated for 10 min at 22° C., and the absorbance was measured at 340 nm.
The effect of the TAT-NSF peptide inhibitors upon the ability of NSF to hydrolyze ATP was measured. 10 μM TAT-NSF peptides was added to recombinant NSF, and the hydrolysis of ATP was measured. All 5 TAT-NSF peptides inhibited NSF ATPase activity (FIG. 8A). […] The effects of TAT-NSF81 (SEQ ID NO: 6) upon NSF were further defined. TAT-NSF81 (SEQ ID NO: 6) inhibits NSF ATPase activity in a dose-dependent manner with an IC50% between 1-10 μM (FIG. 8B).
as §1, with “TAT-NSF peptides” for “DEA or DEA-NONOate or NEM”

T1 sequence (P18708 whole entry): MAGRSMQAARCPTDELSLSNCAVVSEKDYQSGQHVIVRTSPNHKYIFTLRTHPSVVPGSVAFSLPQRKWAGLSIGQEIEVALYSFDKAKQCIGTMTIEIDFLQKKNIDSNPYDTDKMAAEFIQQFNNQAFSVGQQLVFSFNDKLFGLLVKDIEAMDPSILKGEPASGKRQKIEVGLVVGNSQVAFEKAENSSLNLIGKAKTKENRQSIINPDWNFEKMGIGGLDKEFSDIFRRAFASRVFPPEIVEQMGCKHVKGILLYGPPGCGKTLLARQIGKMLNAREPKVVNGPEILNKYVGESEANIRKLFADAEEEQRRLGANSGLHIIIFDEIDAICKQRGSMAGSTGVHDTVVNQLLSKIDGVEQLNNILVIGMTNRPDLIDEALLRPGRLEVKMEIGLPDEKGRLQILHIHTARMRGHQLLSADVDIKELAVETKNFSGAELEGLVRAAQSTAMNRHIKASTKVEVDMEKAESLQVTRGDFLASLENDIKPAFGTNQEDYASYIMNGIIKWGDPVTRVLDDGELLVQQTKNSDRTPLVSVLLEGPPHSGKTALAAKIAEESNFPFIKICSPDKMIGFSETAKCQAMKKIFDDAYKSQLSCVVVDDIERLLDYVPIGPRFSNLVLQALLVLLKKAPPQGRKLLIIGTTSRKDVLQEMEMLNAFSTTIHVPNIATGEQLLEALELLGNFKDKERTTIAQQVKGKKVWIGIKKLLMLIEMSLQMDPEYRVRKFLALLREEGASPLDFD
T1 sequence (P81125 whole entry partner): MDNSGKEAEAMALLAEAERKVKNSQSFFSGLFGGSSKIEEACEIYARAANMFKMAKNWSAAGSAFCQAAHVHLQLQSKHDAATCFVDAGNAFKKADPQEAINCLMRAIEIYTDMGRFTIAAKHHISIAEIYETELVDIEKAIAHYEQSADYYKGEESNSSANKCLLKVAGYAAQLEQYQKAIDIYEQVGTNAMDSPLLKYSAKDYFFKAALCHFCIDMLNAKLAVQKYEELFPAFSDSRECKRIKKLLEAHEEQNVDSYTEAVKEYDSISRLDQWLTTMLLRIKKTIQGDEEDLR
T1 sequence (Q12846 whole entry partner): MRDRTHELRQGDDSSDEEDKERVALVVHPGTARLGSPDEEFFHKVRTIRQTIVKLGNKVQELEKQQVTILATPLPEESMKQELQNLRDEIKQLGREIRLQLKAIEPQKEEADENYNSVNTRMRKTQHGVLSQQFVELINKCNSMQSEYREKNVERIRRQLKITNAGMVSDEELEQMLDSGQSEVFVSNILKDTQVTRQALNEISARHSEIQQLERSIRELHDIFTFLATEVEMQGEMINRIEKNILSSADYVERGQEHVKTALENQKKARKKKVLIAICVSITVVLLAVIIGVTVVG
T1 sequence (Q15836 whole entry partner): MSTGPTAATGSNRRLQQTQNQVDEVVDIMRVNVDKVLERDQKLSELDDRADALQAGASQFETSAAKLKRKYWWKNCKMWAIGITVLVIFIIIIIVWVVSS
T1 sequence (O00161 whole entry partner): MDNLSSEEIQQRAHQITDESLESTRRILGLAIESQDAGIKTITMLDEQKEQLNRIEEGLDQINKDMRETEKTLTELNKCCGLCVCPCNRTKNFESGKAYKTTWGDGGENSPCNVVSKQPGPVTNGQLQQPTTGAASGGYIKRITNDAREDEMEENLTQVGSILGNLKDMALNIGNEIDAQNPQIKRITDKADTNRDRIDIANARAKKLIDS
T2 sequence (P18708 whole entry): as the sequence (P18708 whole entry) above

CCN(CC)[N+]([O-])=NO [DEA-NONOate, 2-(N,N-diethylamino)-diazenolate-2-oxide]
effect on NSF disassembly of 20S SNARE complex from endothelial cell extracts ([1]; NSF pre-treated with 1 mM for 10 min, HAEC membrane extracts): inhibits the ability of NSF to disassemble a 20S SNARE complex
effect on NSF disassembly activity ([1]; recombinant NSF, α-SNAP, GST-SNAREs, TAT-NSF peptides 1 μM in Example 2): inhibits NSF disassembly activity
cysteine residues modified by NO per molecule of NSF (recombinant NSF [2]): approximately 3
effect on thrombin induced vWF release, dose response [3]: inhibits thrombin induced vWF release
effect on NSF ATPase activity (recombinant NSF [4]): does not significantly inhibit NSF hydrolysis of ATP
